The source of these data is ChEMBL document CHEMBL1129767, “Synthesis and properties of 25 and 35 linked -oligoriboadenylates” (Bioorg Med Chem Lett, 1996).

Molecules are shown by their SMILES.

Type in all cases: ADME
Data set [1] in a line: Biological half life period of compound was measured against nuclease P1;NC: Not cleaved.
The nature of data set [2]: Biological half life period of compound was measured against RNaseT2; NC: Not cleaved.
Data set [3] is described as follows: Biological half life period of compound was measured against snake venom phosphodiesterase (SVPDE). The settings on record: serpentes.
Data set [4] is described as follows: Biological half life period of compound was measured against nuclease P1.
Data set [5] can be described thus: Biological half life period of compound was measured against RNaseT2. As to conditions: RNase T2.
A short description of data set [6]: Biological half life period of compound was measured against RNaseT2; N C: Not cleaved.

Broadly, the half-life is the time in which the quantity being followed falls by half. A higher half-life goes with slow loss. As for `Nc1ncnc2c1ncn2C1OC(COP(=O)(O)O[C@@H]2[C@H](O)[C@@H](CO)O[C@@H]2n2cnc3c(N)ncnc32)[C@@H](O)[C@H]1O` (single isomer, unassigned), the T1/2 entry in data set [1] and in data set [2] was “Not cleaved” in each case. Moreover, the half-life in data set [3] is 18 min.

Turning to `Nc1ncnc2c1ncn2C1O[C@H](COP(=O)(O)O[C@H]2[C@@H](O)[C@H](n3cnc4c(N)ncnc43)O[C@@H]2CO)[C@@H](O)[C@H]1O` (some centres not stated), the half-life in data set [4] is 7.8 min; in data set [5], 12.6 min; in data set [3] it was 3.6 min.

As to `Nc1ncnc2c1ncn2C1O[C@H](COP(=O)(O)O[C@@H]2[C@H](O)[C@@H](CO)O[C@H]2n2cnc3c(N)ncnc32)[C@@H](O)[C@H]1O` (some centres not stated), the T1/2 entry in data set [1] and in data set [6] was “Not cleaved” in each case. For the same compound, the half-life in data set [3] is 3.6 min.

As for `Nc1ncnc2c1ncn2C1OC(COP(=O)(O)O[C@@H]2C(CO)O[C@H](n3cnc4c(N)ncnc43)[C@@H]2O)[C@@H](O)[C@H]1O` (single isomer, unassigned), the values for the half-life in data set [4] and in data set [3] were 120 min and 31.8 min, respectively. Further, the T1/2 result in data set [6] is “Not cleaved”.
